This is an account of results in patent publication US20220132854A1, “STABLE LIQUID COMPOSITIONS AND METHODS OF USING THE SAME” (priority 2019, published 2022).

The nature of the series: Storage stability of liquid compositions, 8 weeks at 40° C., loss by HPLC. In kind it is physicochemical. The note with it: same inert ingredients as Composition #7 of Table 3; aged 8 weeks at 40° C. As for the experimental part: To test stability, the compositions were sealed in a container and stored for 8 weeks at 40° C. The relative percentage loss of halosulfuron-methyl was calculated using high performance liquid chromatography (HPLC). The samples were extracted with solvents and then analyzed with reverse phase HPLC equipped with UV detector. The response from the detector are peak areas (mAu*s). The peak areas were correlated with percentage active ingredients through a standard calibration curve. The percentage of pesticide was calculated through the calibration curve. Chemically stable compositions are those compositions that had less than 5% (w/w) relative loss of halosulfuron-methyl after 8 weeks of storage at 40° C.
The compositions described herein lose 5% (w/w) or less of the pesticide after storing the liquid composition for 8 weeks at 40° C. in a sealed container. Alternatively, the compositions described herein comprise at least 95% (w/w) of the pesticide after storing the liquid composition for 8 weeks at 40° C. in a sealed container. The percent loss is measured by quantitative chromatography, such as High Performance Liquid Chromatography (HPLC).

For `COC(=O)c1sccc1S(=O)(=O)NC(=O)Nc1nc(C)nc(OC)n1` [Thifensulfuron-methyl, thifensulfuron-methyl], the “relative loss of thifensulfuron-methyl” value is given as “less than 5 % w/w”.
